The values below come from patent US10703764B2, “Benzopiperazine compositions as BET bromodomain inhibitors” (FORMA Therapeutics, Inc., priority 2013, dated 2020).

The structures appear in SMILES notation. Where two headings read alike, the source gives them in different places.

The target in one assay is T1, BRD4 BD1 (Homo sapiens, UniProt O60885).
T1 construct: made in house
The assay is described as follows: AlphaScreen binding assay, BRD4 Bromodomain 1. The procedure, abridged:
(§1)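 Compound dilution series were mixed with His-tagged BRD4 bromodomain and biotinylated tetra-acetylated H4 (1-21) peptide at pH 7.3 (BD1 and peptide at 50 nM, BD2 and peptide at 100 nM). Donor and acceptor beads were then added, and plates were equilibrated at least 1 h before reading. IC50 values were fitted with a four-parameter logistic model.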
A general note: Alpha assays give light when donor and acceptor beads are brought close together.

In another assay the target is T2, BRD4 BD2 (Homo sapiens, UniProt O60885).
T2 construct: made in house
Put plainly: AlphaScreen binding assay, BRD4 Bromodomain 2. An outline of the steps: as §1

The test system of a further assay is MV4-11 cells. The assay is described as follows: Oncology cell growth assay (3-day proliferation, CellTiter-Glo). In kind it is cell-based. The conditions noted are these: Homo sapiens, AML cell line MV4-11, 72 hours, compounds grouped by IC50 range, read-out: MV4-11 IC50 (inhibition of proliferation, gIC50). An outline of the steps: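 Luminescence from CellTiter-Glo served as the growth read-out after MV4-11 cells (3000/well) were cultured with compound for 72 hours. Final concentrations spanned 10 to 0.0045 μM in 3-fold steps. gIC50 values were derived by four-parameter logistic fitting relative to DMSO and cell-free controls.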
(Cellular ATP, detected with luciferase, serves as a proxy for viable cell number.)

Turning to `CC(=O)N1c2ccc(-c3ccc(N(C)S(C)(=O)=O)cc3)cc2N(C(=O)Oc2ccccn2)C[C@@H]1C` [Example I-1330], the IC50 was 0.1 to 1 µM on BRD4 BD1; 0.05 to 0.5 µM on BRD4 BD2; 0.1 to 0.5 µM in the assay on MV4-11 cells (MV4-11, 72 h).

Turning to `CC(=O)N1c2ccc(-c3cnn(C4CCNCC4)c3)cc2N(C(=O)Oc2ccccn2)C[C@@H]1C` [Example I-1332], the IC50 is 0.1 to 1 µM on BRD4 BD1, < 0.05 µM on BRD4 BD2 and < 0.1 µM in the assay on MV4-11 cells.

For `CC(=O)N1c2ccc(-c3cnn(CCO)c3)cc2N(C(=O)Oc2ccccn2)C[C@@H]1C` [Example I-1334], the IC50 at BRD4 BD1 was 0.1 to 1 µM; on BRD4 BD2, 0.05 to 0.5 µM; in the assay on MV4-11 cells (MV4-11, 72 h) it was 0.1 to 0.5 µM.
